The numbers were not newly measured in PMC11376147 (Chemical Science, 2024), which cites them from elsewhere.

The data set addresses T1, DC-SIGN ECD (Homo sapiens, UniProt Q9NNX6).
T1 sequence (Q9NNX6 66-404): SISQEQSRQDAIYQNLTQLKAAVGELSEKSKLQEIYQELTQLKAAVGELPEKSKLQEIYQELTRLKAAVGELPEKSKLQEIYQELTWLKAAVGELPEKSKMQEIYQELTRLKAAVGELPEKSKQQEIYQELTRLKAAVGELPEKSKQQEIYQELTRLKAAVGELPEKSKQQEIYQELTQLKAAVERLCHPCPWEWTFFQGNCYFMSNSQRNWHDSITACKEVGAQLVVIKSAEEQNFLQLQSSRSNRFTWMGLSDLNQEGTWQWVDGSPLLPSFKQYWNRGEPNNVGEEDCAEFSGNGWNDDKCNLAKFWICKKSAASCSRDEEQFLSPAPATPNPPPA
The note with it: read-out: IC50 DC-SIGN; SPR inhibition, Spike surface; cited from earlier work.

With `OC[C@H]1OC(O)[C@@H](O)[C@@H](O)[C@@H]1O` (stereo partly shown) [mannose], the IC50 was 3000 µM.

By IC50 is commonly meant the concentration needed to halve the response being measured.
